Among the data in ChEMBL document CHEMBL1909046, “DrugMatrix in vitro pharmacology data” are IC50 and Ki values, retold here.

Structures are written as SMILES.

Sequence of Melanocortin receptor 5 (P33032 whole entry): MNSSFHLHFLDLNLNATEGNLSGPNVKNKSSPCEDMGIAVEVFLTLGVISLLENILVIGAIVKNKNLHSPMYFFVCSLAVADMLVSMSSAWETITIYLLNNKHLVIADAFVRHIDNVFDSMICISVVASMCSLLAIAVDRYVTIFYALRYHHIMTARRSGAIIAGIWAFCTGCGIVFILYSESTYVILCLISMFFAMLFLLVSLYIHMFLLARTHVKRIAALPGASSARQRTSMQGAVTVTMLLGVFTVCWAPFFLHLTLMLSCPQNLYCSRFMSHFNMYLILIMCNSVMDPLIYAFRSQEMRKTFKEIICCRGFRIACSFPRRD
Sequence of Mu-type opioid receptor (P35372 whole entry): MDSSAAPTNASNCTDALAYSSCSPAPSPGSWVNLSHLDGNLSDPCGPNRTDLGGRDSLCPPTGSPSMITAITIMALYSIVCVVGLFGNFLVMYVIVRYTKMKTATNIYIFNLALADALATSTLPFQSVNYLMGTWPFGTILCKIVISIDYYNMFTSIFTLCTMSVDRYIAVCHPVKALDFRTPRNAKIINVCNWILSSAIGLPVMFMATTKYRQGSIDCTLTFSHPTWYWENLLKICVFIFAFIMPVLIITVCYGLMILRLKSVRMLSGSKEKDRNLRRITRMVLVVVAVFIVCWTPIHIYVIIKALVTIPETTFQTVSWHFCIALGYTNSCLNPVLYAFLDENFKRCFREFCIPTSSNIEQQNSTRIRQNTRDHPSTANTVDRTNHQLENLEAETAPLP
Sequence of 5-hydroxytryptamine receptor 1B (P28564 whole entry): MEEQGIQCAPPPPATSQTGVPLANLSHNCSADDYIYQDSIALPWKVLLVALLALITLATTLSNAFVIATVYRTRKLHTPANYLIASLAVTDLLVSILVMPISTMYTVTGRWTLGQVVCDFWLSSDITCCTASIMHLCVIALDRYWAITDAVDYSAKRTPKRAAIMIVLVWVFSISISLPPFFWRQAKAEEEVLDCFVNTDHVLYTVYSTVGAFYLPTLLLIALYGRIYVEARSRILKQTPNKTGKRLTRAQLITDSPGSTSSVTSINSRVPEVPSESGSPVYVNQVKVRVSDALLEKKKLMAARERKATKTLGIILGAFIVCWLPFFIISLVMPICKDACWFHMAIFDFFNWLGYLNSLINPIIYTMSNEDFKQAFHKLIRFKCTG

System in one assay: not listed separately
Description: DRUGMATRIX: beta-Lactamase enzyme inhibition (substrate: Nitrocefin). On the set-up: species or system Bacillus cereus. The conditions noted are these: Not Active = under 50% inhibition at 10 µM.
On to `COCc1c(C(C)C)nc(C(C)C)c(/C=C/[C@@H](O)C[C@@H](O)CC(=O)O)c1-c1ccc(F)cc1` [CERIVASTATIN], for which the IC50 result was “Not Active” and the Ki entry was “Not Active”.

In a further assay the target is T1, D(4) dopamine receptor (Homo sapiens, UniProt P21917).
T1 sequence (P21917 whole entry): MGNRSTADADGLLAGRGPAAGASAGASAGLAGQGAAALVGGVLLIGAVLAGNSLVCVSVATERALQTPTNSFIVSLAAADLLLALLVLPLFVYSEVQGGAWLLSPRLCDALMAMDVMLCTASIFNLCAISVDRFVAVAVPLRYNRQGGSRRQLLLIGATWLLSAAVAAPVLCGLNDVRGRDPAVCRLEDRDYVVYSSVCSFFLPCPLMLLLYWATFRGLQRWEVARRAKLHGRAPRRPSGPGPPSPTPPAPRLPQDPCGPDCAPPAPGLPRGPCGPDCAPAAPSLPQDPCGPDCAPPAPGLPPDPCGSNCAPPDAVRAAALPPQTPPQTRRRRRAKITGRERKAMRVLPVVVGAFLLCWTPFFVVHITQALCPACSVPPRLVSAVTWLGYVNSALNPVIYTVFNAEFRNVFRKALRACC
Description: DRUGMATRIX: Dopamine D4.2 radioligand binding (ligand: [3H] Spiperone). In kind it is cell membranes, CHO-K1, Membrane. The conditions noted are these: cho-k1; Not Active = under 50% inhibition at 10 µM.
`COCc1c(C(C)C)nc(C(C)C)c(/C=C/[C@@H](O)C[C@@H](O)CC(=O)O)c1-c1ccc(F)cc1` [CERIVASTATIN]: the IC50 result is listed as “Not Active”.

In the next assay the target is Melanocortin receptor 4 (Homo sapiens, UniProt P32245). Further: in other assays of this panel Not Active means under 50% inhibition at 10 µM.
Sequence of Melanocortin receptor 4 (P32245 whole entry): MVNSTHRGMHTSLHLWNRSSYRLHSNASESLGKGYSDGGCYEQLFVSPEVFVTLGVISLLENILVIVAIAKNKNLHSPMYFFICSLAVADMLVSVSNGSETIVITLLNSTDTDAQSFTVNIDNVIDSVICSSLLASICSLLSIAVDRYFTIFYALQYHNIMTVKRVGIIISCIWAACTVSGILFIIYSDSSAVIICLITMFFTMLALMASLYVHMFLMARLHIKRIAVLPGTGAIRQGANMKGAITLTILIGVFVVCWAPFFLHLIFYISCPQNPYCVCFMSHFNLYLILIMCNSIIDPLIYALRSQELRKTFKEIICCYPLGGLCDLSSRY
Test: not given
Format: cell membranes, Membrane. The settings on record: hek293.
Take `COCc1c(C(C)C)nc(C(C)C)c(/C=C/[C@@H](O)C[C@@H](O)CC(=O)O)c1-c1ccc(F)cc1` [CERIVASTATIN]: the IC50 result is listed as “Not Active”.

A further assay concerns the target 5-hydroxytryptamine receptor 1B (Rattus norvegicus, UniProt P28564). Further: in other assays of this panel Not Active means under 50% inhibition at 10 µM.
Test: not given
Format: cell membranes, Wistar, Cerebral cortex, Membrane.
Settings: not given
As to `COCc1c(C(C)C)nc(C(C)C)c(/C=C/[C@@H](O)C[C@@H](O)CC(=O)O)c1-c1ccc(F)cc1` [CERIVASTATIN], the IC50 result was “Not Active”.

A further assay addresses Mu-type opioid receptor (Homo sapiens, UniProt P35372). Description: DRUGMATRIX: Opiate mu (OP3, MOP) radioligand binding (ligand: [3H] Diprenorphine). Format: cell membranes, CHO-K1, Membrane. The conditions noted are these: cho-k1; Not Active = under 50% inhibition at 10 µM.
In the case of `COCc1c(C(C)C)nc(C(C)C)c(/C=C/[C@@H](O)C[C@@H](O)CC(=O)O)c1-c1ccc(F)cc1` [CERIVASTATIN], the IC50 result is on record as “Not Active”.

A further assay concerns the target T2, Caspase-1 (Homo sapiens, UniProt P29466).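 Further: Caspase-1 enzyme inhibition assay with a peptide substrate; in other assays of this panel Not Active means under 50% inhibition at 10 µM.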
T2 sequence (P29466 whole entry): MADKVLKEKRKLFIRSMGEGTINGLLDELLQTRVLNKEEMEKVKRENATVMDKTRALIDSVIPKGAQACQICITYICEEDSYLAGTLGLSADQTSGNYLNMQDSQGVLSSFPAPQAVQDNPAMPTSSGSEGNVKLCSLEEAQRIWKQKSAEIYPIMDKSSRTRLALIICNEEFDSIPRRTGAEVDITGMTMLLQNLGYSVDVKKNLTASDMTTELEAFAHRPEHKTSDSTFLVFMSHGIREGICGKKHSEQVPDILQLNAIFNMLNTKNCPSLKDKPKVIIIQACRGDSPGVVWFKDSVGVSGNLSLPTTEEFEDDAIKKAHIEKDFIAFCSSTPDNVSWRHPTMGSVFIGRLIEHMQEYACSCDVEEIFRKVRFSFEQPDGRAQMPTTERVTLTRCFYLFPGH
Test: not given
Details: species or system Escherichia coli.
Settings: not given
With `COCc1c(C(C)C)nc(C(C)C)c(/C=C/[C@@H](O)C[C@@H](O)CC(=O)O)c1-c1ccc(F)cc1` [CERIVASTATIN], the IC50 result was “Not Active”.

System in another assay: not listed separately
Description: DRUGMATRIX: Purinergic P2X radioligand binding (ligand: [3H] alpha, beta-Methylene-ATP). In kind it is cell membranes, Oryctolagus cuniculus, New Zealand albino, Urinary bladder, Membrane. The conditions noted are these: Not Active = under 50% inhibition at 10 µM.
Take `COCc1c(C(C)C)nc(C(C)C)c(/C=C/[C@@H](O)C[C@@H](O)CC(=O)O)c1-c1ccc(F)cc1` [CERIVASTATIN]: the IC50 result is reported as “Not Active” and the Ki entry is recorded as “Not Active”.

The target in the next assay is Beta-1 adrenergic receptor (Homo sapiens, UniProt P08588). Description: DRUGMATRIX: Adrenergic beta1 radioligand binding (ligand: [125I] Cyanopindolol). In kind it is cell membranes, CHO-K1, Membrane. The conditions noted are these: cho-k1; Not Active = under 50% inhibition at 10 µM.
Sequence of Beta-1 adrenergic receptor (P08588 whole entry): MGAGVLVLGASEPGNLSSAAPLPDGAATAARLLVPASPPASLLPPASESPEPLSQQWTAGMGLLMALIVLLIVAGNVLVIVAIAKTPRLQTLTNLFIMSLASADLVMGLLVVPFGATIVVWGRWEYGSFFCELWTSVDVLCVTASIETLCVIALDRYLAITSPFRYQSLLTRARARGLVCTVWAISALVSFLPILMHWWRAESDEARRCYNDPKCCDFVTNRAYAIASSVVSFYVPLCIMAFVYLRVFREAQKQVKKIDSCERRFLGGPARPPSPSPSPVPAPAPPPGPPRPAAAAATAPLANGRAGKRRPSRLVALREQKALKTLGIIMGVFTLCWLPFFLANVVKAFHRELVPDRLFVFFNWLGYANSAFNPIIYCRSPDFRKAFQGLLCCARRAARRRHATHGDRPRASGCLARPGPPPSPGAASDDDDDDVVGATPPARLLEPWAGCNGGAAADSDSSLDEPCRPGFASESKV
Take `COCc1c(C(C)C)nc(C(C)C)c(/C=C/[C@@H](O)C[C@@H](O)CC(=O)O)c1-c1ccc(F)cc1` [CERIVASTATIN]: the IC50 result was “Not Active”.

In another assay the target is Epidermal growth factor receptor (Homo sapiens, UniProt P00533). Description: DRUGMATRIX: Protein Tyrosine Kinase, EGF Receptor enzyme inhibition (substrate: Poly(Glu:Tyr)). In kind it is cell-based, Insect cells. The conditions noted are these: insect cells; Not Active = under 50% inhibition at 10 µM.
Sequence of Epidermal growth factor receptor (P00533 whole entry): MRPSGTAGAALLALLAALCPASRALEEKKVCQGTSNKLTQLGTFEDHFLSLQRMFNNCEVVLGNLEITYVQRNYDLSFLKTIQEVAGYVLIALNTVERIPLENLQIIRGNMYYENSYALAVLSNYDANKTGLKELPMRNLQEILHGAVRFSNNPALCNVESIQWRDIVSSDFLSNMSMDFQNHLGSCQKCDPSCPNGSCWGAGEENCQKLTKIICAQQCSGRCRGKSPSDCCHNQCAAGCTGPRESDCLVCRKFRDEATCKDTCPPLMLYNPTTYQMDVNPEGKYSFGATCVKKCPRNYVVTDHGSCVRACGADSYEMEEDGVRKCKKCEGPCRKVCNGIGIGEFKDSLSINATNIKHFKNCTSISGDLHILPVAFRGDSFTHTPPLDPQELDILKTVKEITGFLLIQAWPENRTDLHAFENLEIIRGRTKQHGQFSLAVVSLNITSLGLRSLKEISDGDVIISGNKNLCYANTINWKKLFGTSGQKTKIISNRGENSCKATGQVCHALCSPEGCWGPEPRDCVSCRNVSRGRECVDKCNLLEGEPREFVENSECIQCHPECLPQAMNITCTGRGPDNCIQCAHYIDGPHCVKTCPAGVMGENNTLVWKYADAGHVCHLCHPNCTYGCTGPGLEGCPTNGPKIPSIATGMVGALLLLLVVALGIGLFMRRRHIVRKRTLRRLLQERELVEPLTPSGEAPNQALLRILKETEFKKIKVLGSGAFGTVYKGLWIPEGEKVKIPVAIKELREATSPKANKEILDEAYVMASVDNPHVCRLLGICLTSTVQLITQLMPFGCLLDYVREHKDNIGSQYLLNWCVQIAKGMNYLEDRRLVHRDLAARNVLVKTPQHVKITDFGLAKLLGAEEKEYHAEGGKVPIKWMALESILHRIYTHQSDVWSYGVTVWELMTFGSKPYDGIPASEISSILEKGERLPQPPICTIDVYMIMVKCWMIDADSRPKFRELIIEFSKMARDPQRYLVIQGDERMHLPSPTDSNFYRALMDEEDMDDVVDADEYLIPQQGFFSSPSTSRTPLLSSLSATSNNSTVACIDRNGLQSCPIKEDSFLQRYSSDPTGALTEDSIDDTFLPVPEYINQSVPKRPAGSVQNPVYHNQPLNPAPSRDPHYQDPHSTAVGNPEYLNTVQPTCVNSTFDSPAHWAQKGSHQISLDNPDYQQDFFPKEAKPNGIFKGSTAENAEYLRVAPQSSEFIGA
On to `COCc1c(C(C)C)nc(C(C)C)c(/C=C/[C@@H](O)C[C@@H](O)CC(=O)O)c1-c1ccc(F)cc1` [CERIVASTATIN], for which the IC50 result was “Not Active”.

For the next assay, the target named is Tyrosine-protein kinase Fyn (Homo sapiens, UniProt P06241). In words: biochemical. In kind it is cell-based, Insect cells. The conditions noted are these: insect cells.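 Further: enzymatic inhibition of Fyn kinase activity measured with Poly(Glu:Tyr) as the phosphorylation substrate; in other assays of this panel Not Active means under 50% inhibition at 10 µM.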
Sequence of Tyrosine-protein kinase Fyn (P06241 whole entry): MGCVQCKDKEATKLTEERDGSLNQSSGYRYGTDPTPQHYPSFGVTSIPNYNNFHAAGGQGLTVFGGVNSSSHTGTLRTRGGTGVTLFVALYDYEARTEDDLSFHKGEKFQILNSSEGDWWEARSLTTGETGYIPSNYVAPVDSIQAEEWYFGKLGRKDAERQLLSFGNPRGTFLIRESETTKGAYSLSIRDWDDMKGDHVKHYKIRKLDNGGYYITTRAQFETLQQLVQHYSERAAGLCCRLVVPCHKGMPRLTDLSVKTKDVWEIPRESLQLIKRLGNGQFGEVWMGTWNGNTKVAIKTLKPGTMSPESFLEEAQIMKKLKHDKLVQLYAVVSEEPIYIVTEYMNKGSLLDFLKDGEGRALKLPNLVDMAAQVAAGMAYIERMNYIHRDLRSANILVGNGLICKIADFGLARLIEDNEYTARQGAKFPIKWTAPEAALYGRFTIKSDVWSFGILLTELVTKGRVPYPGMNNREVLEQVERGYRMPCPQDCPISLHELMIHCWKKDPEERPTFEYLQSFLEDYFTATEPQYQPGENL
`COCc1c(C(C)C)nc(C(C)C)c(/C=C/[C@@H](O)C[C@@H](O)CC(=O)O)c1-c1ccc(F)cc1` [CERIVASTATIN]: the IC50 entry is “Not Active”.

For another assay, the target named is T3, Cysteinyl leukotriene receptor 1 (Homo sapiens, UniProt Q9Y271). Further: in other assays of this panel Not Active means under 50% inhibition at 10 µM.
T3 sequence (Q9Y271 whole entry): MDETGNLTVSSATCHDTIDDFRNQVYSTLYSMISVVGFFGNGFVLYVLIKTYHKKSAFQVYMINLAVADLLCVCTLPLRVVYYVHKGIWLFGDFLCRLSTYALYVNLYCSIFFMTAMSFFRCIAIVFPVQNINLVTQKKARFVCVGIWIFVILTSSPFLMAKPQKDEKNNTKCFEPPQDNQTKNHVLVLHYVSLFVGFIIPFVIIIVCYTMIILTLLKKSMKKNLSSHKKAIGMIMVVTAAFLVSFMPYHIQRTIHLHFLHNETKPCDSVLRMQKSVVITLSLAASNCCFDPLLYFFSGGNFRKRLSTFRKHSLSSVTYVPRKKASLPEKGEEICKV
Test: not given
Format: cell membranes, CHO-K1, Membrane. The conditions noted are these: cho-k1.
Consider `COCc1c(C(C)C)nc(C(C)C)c(/C=C/[C@@H](O)C[C@@H](O)CC(=O)O)c1-c1ccc(F)cc1` [CERIVASTATIN], for which the IC50 result is “Not Active”.

System in another assay: not listed separately
In words: DRUGMATRIX: Leukotriene, BLT (LTB4) radioligand binding (ligand: [3H]LTB4). In kind it is cell membranes, Membrane. The conditions noted are these: u-937; Not Active = under 50% inhibition at 10 µM.
`COCc1c(C(C)C)nc(C(C)C)c(/C=C/[C@@H](O)C[C@@H](O)CC(=O)O)c1-c1ccc(F)cc1` [CERIVASTATIN]: the IC50 entry is recorded as “Not Active” and the Ki entry is listed as “Not Active”.

The target in a further assay is T4, Cathepsin G (Homo sapiens, UniProt P08311).
T4 sequence (P08311 whole entry): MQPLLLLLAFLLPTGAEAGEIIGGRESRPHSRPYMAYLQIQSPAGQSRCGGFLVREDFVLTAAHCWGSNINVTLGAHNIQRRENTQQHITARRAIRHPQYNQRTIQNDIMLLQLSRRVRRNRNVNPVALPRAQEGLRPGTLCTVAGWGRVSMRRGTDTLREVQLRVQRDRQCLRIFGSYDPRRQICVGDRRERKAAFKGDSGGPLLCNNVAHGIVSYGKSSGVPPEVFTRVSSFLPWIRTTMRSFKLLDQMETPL
Test: not given
In kind it is tissue-based. The conditions noted are these: neutrophil.
For the compound `COCc1c(C(C)C)nc(C(C)C)c(/C=C/[C@@H](O)C[C@@H](O)CC(=O)O)c1-c1ccc(F)cc1` [CERIVASTATIN], the IC50 entry was “Not Active”.

System in the next assay: not listed separately
In words: DRUGMATRIX: Sigma2 radioligand binding (ligand: [3H] Ifenprodil). Format: cell membranes, Rattus norvegicus, Wistar, Brain, Membrane. The settings on record: Not Active = under 50% inhibition at 10 µM.
In the case of `COCc1c(C(C)C)nc(C(C)C)c(/C=C/[C@@H](O)C[C@@H](O)CC(=O)O)c1-c1ccc(F)cc1` [CERIVASTATIN], the IC50 result is given as “Not Active” and the Ki entry was “Not Active”.

A further assay has as its target Melanocortin receptor 5 (Homo sapiens, UniProt P33032). Further: in other assays of this panel Not Active means under 50% inhibition at 10 µM.
Test: not given
Format: cell membranes, HEK293, Membrane. The settings on record: hek293.
As to `COCc1c(C(C)C)nc(C(C)C)c(/C=C/[C@@H](O)C[C@@H](O)CC(=O)O)c1-c1ccc(F)cc1` [CERIVASTATIN], the IC50 result is given as “Not Active”.

In another assay the target is T5, 5-hydroxytryptamine receptor 2C (Homo sapiens, UniProt P28335).
T5 sequence (P28335 whole entry): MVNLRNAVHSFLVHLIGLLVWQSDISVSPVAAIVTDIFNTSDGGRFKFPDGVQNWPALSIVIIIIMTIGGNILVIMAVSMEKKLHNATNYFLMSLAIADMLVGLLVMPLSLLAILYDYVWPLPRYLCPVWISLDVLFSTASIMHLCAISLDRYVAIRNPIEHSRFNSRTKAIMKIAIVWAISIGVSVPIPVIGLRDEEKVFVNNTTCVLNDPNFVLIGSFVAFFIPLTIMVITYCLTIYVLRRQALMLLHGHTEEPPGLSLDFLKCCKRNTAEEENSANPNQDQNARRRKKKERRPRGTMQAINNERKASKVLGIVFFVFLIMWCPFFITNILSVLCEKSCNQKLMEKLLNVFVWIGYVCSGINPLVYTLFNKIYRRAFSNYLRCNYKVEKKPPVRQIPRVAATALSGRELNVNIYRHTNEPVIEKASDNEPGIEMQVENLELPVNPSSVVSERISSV
In words: DRUGMATRIX: Serotonin (5-Hydroxytryptamine) 5-HT2C radioligand binding (ligand: [3H] Mesulergine). Format: cell membranes, CHO-K1, Membrane. The conditions noted are these: cho-k1; Not Active = under 50% inhibition at 10 µM.
In the case of `COCc1c(C(C)C)nc(C(C)C)c(/C=C/[C@@H](O)C[C@@H](O)CC(=O)O)c1-c1ccc(F)cc1` [CERIVASTATIN], the IC50 entry was “Not Active”.
